Results: article PMC8421526, “Cell-Penetrating Peptides Predicted From CASC3, AKIP1, and AHRR Proteins” (Frontiers in Pharmacology, 2021)
“Also recorded” adds a separate entry of the source. Like-named read-outs stand apart in the source and are kept apart here.

What was measured:
U87, PC3, and HeLa cells [1] = experiment: Percentage of fluorescent cells after peptide treatment, flow cytometry; type: cell-based, human; settings: FAM-labelled peptide 10 µM, 2 h, serum free media, trypan blue quenching, Figure 1B; for Percentage of the fluorescent positive cells: threshold set with untreated cells
Protocol: U87 (human glioblastoma like cells) and HeLa (human cervical cancer) were maintained at 37°C and 5% CO2 in Dulbecco’s Modified Eagle’s Medium (DMEM) (Sigma, Germany). PC3 (human prostate cancer) and CHO cells were maintained in Ham´S F12 media and incubated at 37°C and 5% CO2. Cell media were supplemented with 0.1 mM non-essential amino acids, 1.0 mM sodium pyruvate, 10% fetal bovine serum (FBS) (Sigma, Germany), 100°U ml^−1 penicillin, and […] streptomycin (Invitrogen, Sweden). U87 cell dishes were treated with 0.1% gelatin solution prior to addition of cells and media. The percentage of the fluorescent cells after peptide treatment was assessed using flow cytometry. For flow cytometry, 10,000 cells were seeded on a 96-well plate 1 day prior to the experiment. On the experiment day, the cell media was changed to 90 µl of fresh serum free media followed by the addition of 10 µl of the fluorescently labelled peptide solution. The peptide’s final concentration on the cells was 10 µM. The cells were incubated with the peptides for 2 h, following washes with PBS buffer. 0.25% Trypsin-EDTA was added to detach the cells from the plate and 200 µl of PBS mixed with 1% FBS was added. Shortly before the analysis, 50 µl of 0.4% trypan blue was added to quench the fluorescence outside the cells. The fluorescence detected from the untreated cells was used to set the signal threshold. The results are shown as the percentage of the fluorescent positive cells.

U87, PC3, and HeLa cells [2] = experiment: Internalization of FAM-labelled peptides, fluorescence from cell lysate; type: cell-based, human; settings: FAM-labelled peptide 10 µM, 2 h, serum free media, lysis 0.1% Triton X100; cannot distinguish internalized from membrane-attached peptide; Figure 1A
Protocol: U87 (human glioblastoma like cells) and HeLa (human cervical cancer) were maintained at 37°C and 5% CO2 in Dulbecco’s Modified Eagle’s Medium (DMEM) (Sigma, Germany). PC3 (human prostate cancer) and CHO cells were maintained in Ham´S F12 media and incubated at 37°C and 5% CO2. Cell media were supplemented with 0.1 mM non-essential amino acids, 1.0 mM sodium pyruvate, 10% fetal bovine serum (FBS) (Sigma, Germany), 100°U ml^−1 penicillin, and […] streptomycin (Invitrogen, Sweden). U87 cell dishes were treated with 0.1% gelatin solution prior to addition of cells and media. For assessing the internalization of the peptides from the cell lysate, 50,000 cells were seeded on a 24-well plate 1 day prior to the experiment. On the experiment day, cell media was changed to 450 µl of fresh serum free media followed by the addition of 50 µl of fluorescently labelled peptide solution. The peptide’s final concentration on the cells was 10 µM. The cells were incubated with the peptides for 2 h, following washes with PBS buffer and cell lysis with 100 µl of 0.1% Triton X100. The cell lysate was transferred to black 96-well plate and the fluorescence signal from the fluorescently labelled peptide was measured.

U87 cells [3] = settings: for 2-Way ANOVA, MTS assay, treatment group compared to untreated: Table S4 C; for Proliferation in MTS assay compared to the CPP Tat treated group: same concentration of Tat, statistically significant
Protocol: (§1) The cell proliferation was analyzed with the CellTiter 96® Aqueous Non-Radioactive Cell Proliferation Assay (MTS) (Promega Biotech AB, Sweden) according to the manufacturer’s instructions. For this, 10,000 U87 or CHO cells were seeded 1 day prior to the experiment on transparent 96-well plates. On the experiment day, media was replaced with 90 μl of fresh serum free media. Peptides in the concentration range from 0 to 32 µM were added to the cells. The cells were incubated with the peptides for 20 h or 46 h, following the addition of the reagent and further incubation to reach 24 h or 48 h timepoints. The absorbance of the formazan product was measured at 490 nm with Tecan Sunrise microplate absorbance reader (Tecan Group Ltd., Switzerland) and the percentage of viable cells was calculated using the GraphPad Prism software 5.0 (GraphPad Software, CA, United States).

CHO cells = settings: serum free media, 8 and 32 µM, average of three independent wells
Protocol: as §1

HeLa cells = experiment: Internalization of fluorescently labelled peptide, confocal microscopy of live cells; type: cell-based, human; settings: 4 h; for Fluorescence signal from the peptide in confocal images: fluorescently labelled peptide 10 µM, Hoechst counterstain, 20x; for Entry into cells in confocal images: fluorescently labelled peptide 20 µM, Supplementary Figure S2
Protocol: 48 h prior to the addition of […], 20,000 HeLa cells were seeded on 8-well Nunc™ Lab-Tek™ (Thermo Scientific™, United States) chamber plates. Before the addition of the peptide solutions media was changed to 225 µl of fresh media. […] After 4 h incubation, the cells were washed with PBS and counterstained with Hoechst 33342. Confocal images were acquired from live cells with Zeiss LSM710 (Carl Zeiss AG, Germany). For detecting the fluorescent label from the peptide, 488 nm laser with […] was used, and for detecting nuclei 405 nm laser with 416–503 filter was used. The images were taken with 20x magnification.

U87 cells [4] = experiment: Total DNA from cell lysate (PicoGreen dsDNA assay); type: cell-based, human; settings: 5 µM peptide, 48 h, normalized to untreated cells, average of three wells
Protocol: Total DNA was measured from U87 cells 48 h after the addition of the peptide solutions. After the incubation, the cells were washed with PBS and lysed as described above. From the cell lysate, DNA was quantified with Quant-iT™ PicoGreen™ dsDNA Assay Kit. The results are shown as the average of measurements from three wells and normalized to untreated cells.

[5] = Figure 3 24 h, peptide added 0.5 µM
[6] = Figure 3 24 h, peptide added 2 µM
[7] = Figure 3 24 h, peptide added 8 µM
[8] = Figure 3 24 h, peptide added 32 µM
[9] = Figure 3 48 h, peptide added 0.5 µM
[10] = Figure 3 48 h, peptide added 2 µM
[11] = Figure 3 48 h, peptide added 8 µM
[12] = Figure 3 48 h, peptide added 32 µM

Sequence	Fluorescent signal in flow cytometry (detectable or not) (U87, PC3, and HeLa cells [1])	Fluorescence signal from the cell lysate (internalization) (U87, PC3, and HeLa cells [2])	2-Way ANOVA, MTS assay, treatment group compared to untreated (U87 cells [3]; [5])	2-Way ANOVA, MTS assay, treatment group compared to untreated (U87 cells [3]; [6])	2-Way ANOVA, MTS assay, treatment group compared to untreated (U87 cells [3]; [7])	2-Way ANOVA, MTS assay, treatment group compared to untreated (U87 cells [3]; [8])	2-Way ANOVA, MTS assay, treatment group compared to untreated (U87 cells [3]; [9])	2-Way ANOVA, MTS assay, treatment group compared to untreated (U87 cells [3]; [10])	2-Way ANOVA, MTS assay, treatment group compared to untreated (U87 cells [3]; [11])	2-Way ANOVA, MTS assay, treatment group compared to untreated (U87 cells [3]; [12])	Fluorescence signal from the peptide in confocal images (HeLa cells)	Percentage of the fluorescent positive cells (U87, PC3, and HeLa cells [1])	further results
VAAKKRKKDML [FBXO32_59-69, predicted CPP from F-box only protein 32, C-terminally amidated]	all the peptides except the CCNL2, ING4, and FBXO32 derived peptides had a detectable signal	–	–	–	–	–	–	–	–	–	–	–	–
NTKRRLEGAKKA [CCNL2_354-365, predicted CPP from Cyclin L2, C-terminally amidated]	all the peptides except the CCNL2, ING4, and FBXO32 derived peptides had a detectable signal	–	–	–	–	–	–	–	–	–	–	–	–
PDDIKPRRIRKPRY [CASC3_251-264, predicted CPP from CASC3, C-terminally amidated]	–	highest fluorescence intensities	** (p < 0.01 - **)	** (p < 0.01 - **)	*** (p < 0.001 - ***)	*** (p < 0.001 - ***)	* (p < 0.05 - *)	* (p < 0.05 - *)	* (p < 0.05 - *)	*** (p < 0.001 - ***)	fluorescence signal from the peptides can be seen in the cells; also recorded: strongest and well dispersed signal	more than 10%	Proliferation in MTS assay compared to the CPP Tat treated group (U87 cells [3]; U87 cells, 0.5 µM, 24 h): decrease in the proliferation; Cell proliferation in MTS assay (U87 cells [3]; U87 cells, serum free media, 8 and 32 µM): proliferation decreased; Cell proliferation in MTS assay (CHO cells): proliferation decreased; Entry into cells in confocal images (HeLa cells): able to enter into almost all the cells
RKRRESASSSSSVKKAKKP [DMAP1_459-467, predicted CPP from DNA methyltransferase 1-associated protein 1, C-terminally amidated]	–	above control	–	–	–	–	–	–	–	–	–	–	–
GECTYAGRKRRRPLQK [AHRR8-24, predicted CPP from Aryl hydrocarbon receptor repressor, C-terminally amidated]	–	highest fluorescence intensities	ns (P > 0.05 – ns)	* (p < 0.05 - *)	* (p < 0.05 - *)	** (p < 0.01 - **)	–	–	–	–	fluorescence signal from the peptides can be seen in the cells	more than 10%	Proliferation in MTS assay compared to the CPP Tat treated group (U87 cells [3]; U87 cells, 0.5, 2, and 8 µM, 48 h): decrease in the proliferation; Viability in MTS assay (U87 cells [3]; U87 cells, serum free media, after 48 h): decreased viability
VLERAKRRAV [AKIP1_27-37]	–	highest fluorescence intensities	ns (P > 0.05 – ns)	* (p < 0.05 - *)	* (p < 0.05 - *)	* (p < 0.05 - *)	ns (P > 0.05 – ns)	* (p < 0.05 - *)	* (p < 0.05 - *)	** (p < 0.01 - **)	fluorescence signal from the peptides can be seen in the cells	more than 10%	Amount of total DNA (U87 cells [4]): decreased amount of total DNA
TQKEKKAARARSK [ING4_134-145]	all the peptides except the CCNL2, ING4, and FBXO32 derived peptides had a detectable signal	–	–	–	–	–	–	–	–	–	–	–	–
GRKKRRQRRRPPQ [Tat48-60, known CPP from HIV TAT used as control, C-terminally amidated, reference compound]	–	–	ns (P > 0.05 – ns)	ns (P > 0.05 – ns)	ns (P > 0.05 – ns)	* (p < 0.05 - *)	ns (P > 0.05 – ns)	ns (P > 0.05 – ns)	* (p < 0.05 - *)	*** (p < 0.001 - ***)	fluorescence signal from the peptides can be seen in the cells	–	Toxicity in MTS assay (U87 cells [3]; U87 cells, serum free media, 0-32 µM, after 24 or 48 h): did not show a considerable amount of toxicity; Entry into cells in confocal images (HeLa cells): able to enter into almost all the cells
